Publication PMC7433010, “Exploration of multi‐target effects of 3‐benzoyl‐5‐hydroxychromen‐2‐one in Alzheimer’s disease cell and mouse models” (Aging Cell, 2020)

How the values were obtained:
ΔK280 TauRD‐DsRed = test: Western blot of soluble ΔK280 TauRD‐DsRed in SH‐SY5Y cells; format: cell-based, human; details: 1 µM, not significant
Protocol: To knock down CREB expression in ∆K280 TauRD-DsRed SH-SY5Y cells, lentiviral short hairpin RNA (shRNA) targeting CREB (TRCN0000226466), NRF2 (TRCN0000007558), and a negative control scrambled (TRC2.Void) were obtained from National RNAi Core Facility, IMB/GRC, Academia Sinica, Taipei, Taiwan. On day 1, cells were plated on 6-well plates (for protein analysis) or 24-well plates (for neurite outgrowth analysis) in the presence of retinoic acid as described. On the second day, the cells were infected with lentivirus (multiplicity of infection: 3) in medium with polybrene (8 µg/mL; Sigma-Aldrich). […] On day 9, the cells were collected for NRF2, CREB, pCREB, and cleaved CASP3 protein analysis or analyzed for neurite outgrowth as described.
Total proteins from ∆K280 TauRD-DsRed SH-SY5Y cells were obtained using a RIPA buffer containing 50 mM Tris-HCl (pH8.0), 150 mM NaCl, 2 mM EDTA (pH8.0), 50 mM NaF, 0.1% SDS, 0.5% sodium deoxycholate, 1% NP40, and a protease inhibitor cocktail (Sigma-Aldrich). […] Protein concentrations were determined using a protein assay kit (Bio-Rad, Hercules, CA, USA), with albumin as a standard. […] Subsequently, immune complexes were detected using a horseradish peroxidase-conjugated goat anti-mouse or goat anti-rabbit IgG antibody (1:5000; GeneTex, Irvive, CA, USA) and a chemiluminescent substrate (Millipore).

AKT = test: Western blot of AKT in ∆K280 TauRD‐DsRed SH‐SY5Y cells; format: cell-based, human
Protocol: Total proteins from ∆K280 TauRD-DsRed SH-SY5Y cells were obtained using a RIPA buffer containing 50 mM Tris-HCl (pH8.0), 150 mM NaCl, 2 mM EDTA (pH8.0), 50 mM NaF, 0.1% SDS, 0.5% sodium deoxycholate, 1% NP40, and a protease inhibitor cocktail (Sigma-Aldrich). After sonication and sitting on ice for 20 min, the lysates were centrifuged at 14,000 × g for 30 min at 4°C. Protein concentrations were determined using a protein assay kit (Bio-Rad, Hercules, CA, USA), with albumin as a standard. Total proteins (20 µg) were electrophoresed on 10% or 12% SDS-polyacrylamide gel and transferred onto polyvinylidene difluoride (PVDF) membranes (Sigma-Aldrich) through reverse electrophoresis. […] Subsequently, immune complexes were detected using a horseradish peroxidase-conjugated goat anti-mouse or goat anti-rabbit IgG antibody (1:5000; GeneTex, Irvive, CA, USA) and a chemiluminescent substrate (Millipore).
Figure S4. ΔK280 TauRD-DsRed SH-SY5Y cells. […] On day 9, neurite outgrowth and caspase 3 activity were measured. In addition, expression of HSPB1, NRF2, and CREB pathways were assessed. (b) Relative AKT, pAKT, ERK, and pERK protein levels analyzed through immunoblotting. […]

[1] = Body weight in STZ‐treated 3 × Tg‐AD mice; format: in vivo, mouse; details: 40 mg/kg i.p.; among the three groups
Protocol: For the in vivo LM‐031 treatment experiments, 6‐month‐old male homozygous 3 × Tg‐AD mice (n = 10 per group) were used. Mice were randomly divided into three groups: – streptozocin (STZ), STZ, and STZ/LM‐031. STZ‐induced hyperglycemia was used to accelerate the development of AD phenotype. Mouse body weight and blood glucose level were measured on days 1, 8, 15, 22, and 29. LM‐031 (40 mg/kg) or vehicle (DMSO:Cremophor EL:0.9% saline = 1:2:7) was intraperitoneally injected every day for 22 days from days 15 to 36. All animal procedures were ethically approved by the Institutional Animal Care and Use Committee of National Taiwan Normal University, Taipei, Taiwan (Permit Number: 103002) and were conducted in compliance with the ARRIVE (Animal Research: Reporting In Vivo Experiments) guidelines. Open‐field task, Y‐maze task, Morris water maze task, and immunohistochemistry and image analysis were performed.
Mice harboring APPSwe, PS1M146V, and […] transgenes (3×Tg-AD) (Oddo et al., 2003) were purchased from the Jackson Laboratory (004807; Bar Harbor, ME, USA). […] Mouse body weight was measured and blood glucose level was measured on days 1, 8, 15, 22, and 29 using a blood glucose meter (Bioland Technology, Taipei, Taiwan). […]

For `O=C(c1ccccc1)c1cc2c(O)cccc2oc1=O` [LM‐031, 3‐benzoyl‐5‐hydroxychromen‐2‐one], the “soluble TauRD‐DsRed protein level” value (ΔK280 TauRD‐DsRed; CREB‐specific shRNA‐infected cells, untreated 86%) was 104%, the “soluble TauRD‐DsRed protein level” value (ΔK280 TauRD‐DsRed; NRF2‐specific shRNA‐infected cells, untreated 82%) was 103% and the AKT level (AKT) was “not notably affected”. For the same molecule, the body weight [1] was “No significant change”.
